Test results taken from patent US12780800B1, “Triazole-pyridinyl substituted azacyclohexyl acetic acid compounds as LPA receptor antagonists” (Viva Star Biosciences Limited, priority 2021, dated 2022).

Target: T1, LPA1 (Homo sapiens, UniProt Q92633)
T1 construct: ProLink (PK) beta-galactosidase enzyme-fragment tag; host or cells: CHO-K1
Test: LPA1 calcium flux assay (LPA1 functional antagonist assay)
Type: cell-based
Conditions: PathHunter CHO-K1 EDG2 β-Arrestin cell line; calcium indicator dye; stimulated with EC80 concentration of LPA; FLIPR Tetra
Method in brief: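 The LPA1 antagonist readout was intracellular calcium flux, and IC50 values were calculated from it. Plates stood 30 min at RT after compound addition. Cells, grown overnight, had first taken up calcium dye over 45 min at 37 °C.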

T1 sequence (Q92633 whole entry, the tested form may be a part): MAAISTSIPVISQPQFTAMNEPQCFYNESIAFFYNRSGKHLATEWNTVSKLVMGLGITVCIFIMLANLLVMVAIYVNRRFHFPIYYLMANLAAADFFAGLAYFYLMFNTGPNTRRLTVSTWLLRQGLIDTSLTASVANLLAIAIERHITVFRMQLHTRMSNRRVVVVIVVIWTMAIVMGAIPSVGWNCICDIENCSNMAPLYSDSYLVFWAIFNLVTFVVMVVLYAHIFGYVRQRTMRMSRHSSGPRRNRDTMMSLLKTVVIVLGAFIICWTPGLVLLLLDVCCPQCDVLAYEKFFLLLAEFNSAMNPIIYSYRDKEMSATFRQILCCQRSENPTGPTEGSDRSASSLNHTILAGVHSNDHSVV

| SMILES | IC50 [nM] |
| --- | --- |
| Cn1nnc(-c2ccc(N3CCC[C@H](CC(=O)O)C3)c(C(F)(F)F)n2)c1Cn1cc(C2CC2)ccc1=O [Example 59, (R)-2-(1-(6-(5-((5-cyclopropyl-2-oxopyridin-1(2H)-yl)methyl)-1-methyl-1H-1,2,3-triazol-4-yl)-2-(trifluoromethyl)pyridin-3-yl)piperidin-3-yl)acetic acid] | < 100 |
| CCCc1ccc(=O)n(Cc2c(-c3ccc(N4CCC[C@H](CC(=O)O)C4)c(C(F)F)n3)nnn2C)c1 [Example 60, (R)-2-(1-(2-(difluoromethyl)-6-(1-methyl-5-((2-oxo-5-propylpyridin-1(2H)-yl)methyl)-1H-1,2,3-triazol-4-yl)pyridin-3-yl)piperidin-3-yl)acetic acid] | < 100 |
| CCc1nc(-c2nnn(C)c2CN2C[C@H](CC3CC3)N(C)C2=O)ccc1N1C[C@@H](CC(=O)O)CC(F)(F)C1 [Example 61, 2-((S)-1-(6-(5-(((S)-4-(cyclopropylmethyl)-3-methyl-2-oxoimidazolidin-1-yl)methyl)-1-methyl-1H-1,2,3-triazol-4-yl)-2-ethylpyridin-3-yl)-5,5-difluoropiperidin-3-yl)acetic acid] | 500 to 5000 |
| CCc1nc(-c2nnn(C)c2CN2C[C@H](CC3CC3)NC2=O)ccc1N1C[C@@H](CC(=O)O)CC(F)(F)C1 [Example 65, 2-((S)-1-(6-(5-(((S)-4-(cyclopropylmethyl)-2-oxoimidazolidin-1-yl)methyl)-1-methyl-1H-1,2,3-triazol-4-yl)-2-ethylpyridin-3-yl)-5,5-difluoropiperidin-3-yl)acetic acid] | > 5000 |
| CCc1nc(-c2nnn(C)c2Cn2nc(CC3CC3)n(C)c2=O)ccc1N1C[C@@H](CC(=O)O)CC(F)(F)C1 [Example 68, (S)-2-(1-(6-(5-((3-(cyclopropylmethyl)-4-methyl-5-oxo-4,5-dihydro-1H-1,2,4-triazol-1-yl)methyl)-1-methyl-1H-1,2,3-triazol-4-yl)-2-ethylpyridin-3-yl)-5,5-difluoropiperidin-3-yl)acetic acid] | 500 to 5000 |
| Cc1nc(-c2nnn(C)c2Cn2ccn(CC(C)C)c2=O)ccc1N1C[C@@H](CC(=O)O)CC(F)(F)C1 [Example 71, (S)-2-(5,5-difluoro-1-(6-(5-((3-isobutyl-2-oxo-2,3-dihydro-1H-imidazol-1-yl)methyl)-1-methyl-1H-1,2,3-triazol-4-yl)-2-methylpyridin-3-yl)piperidin-3-yl)acetic acid] | > 5000 |
| CCC(C)n1ccn(Cc2c(-c3ccc(N4C[C@@H](CC(=O)O)CC(F)(F)C4)c(C)n3)nnn2C)c1=O (stereo partly drawn) [Example 73, 2-((3S)-1-(6-(5-((3-(sec-butyl)-2-oxo-2,3-dihydro-1H-imidazol-1-yl)methyl)-1-methyl-1H-1,2,3-triazol-4-yl)-2-methylpyridin-3-yl)-5,5-difluoropiperidin-3-yl)acetic acid] | > 5000 |
| CCc1nc(-c2nnn(C)c2COc2nccc(C3CCC3)n2)ccc1N1CCC[C@H](CC(=O)O)C1 [Example 74, (R)-2-(1-(6-(5-(((4-cyclobutylpyrimidin-2-yl)oxy)methyl)-1-methyl-11H-1,2,3-triazol-4-yl)-2-ethylpyridin-3-yl)piperidin-3-yl)acetic acid] | < 100 |
| Cc1nc(-c2nnn(C)c2COc2nccc(C3CC3)n2)ccc1N1C[C@@H](CC(=O)O)CC(F)(F)C1 [Example 75, (S)-2-(1-(6-(5-(((4-cyclopropylpyrimidin-2-yl)oxy)methyl)-1-methyl-1H-1,2,3-triazol-4-yl)-2-methylpyridin-3-yl)-5,5-difluoropiperidin-3-yl)acetic acid] | 500 to 5000 |
| Cc1nc(-c2nnn(C)c2COc2nccc(C3CCC3)n2)ccc1N1C[C@@H](CC(=O)O)CC(F)(F)C1 [Example 76, (S)-2-(1-(6-(5-(((4-cyclobutylpyrimidin-2-yl)oxy)methyl)-1-methyl-1H-1,2,3-triazol-4-yl)-2-methylpyridin-3-yl)-5,5-difluoropiperidin-3-yl)acetic acid] | < 100 |
| Cc1nc(-c2nnn(C)c2COc2nccc(C(C)C)n2)ccc1N1C[C@@H](CC(=O)O)CC(F)(F)C1 [Example 77, (S)-2-(5,5-difluoro-1-(6-(5-(((4-isopropylpyrimidin-2-yl)oxy)methyl)-1-methyl-1H-1,2,3-triazol-4-yl)-2-methylpyridin-3-yl)piperidin-3-yl)acetic acid] | 100 to 500 |
| Cc1nc(-c2nnn(C)c2COc2cc(-n3cccn3)ncn2)ccc1N1C[C@@H](CC(=O)O)CC(F)(F)C1 [Example 78, (S)-2-(1-(6-(5-(((6-(1H-pyrazol-1-yl)pyrimidin-4-yl)oxy)methyl)-1-methyl-1H-1,2,3-triazol-4-yl)-2-methylpyridin-3-yl)-5,5-difluoropiperidin-3-yl)acetic acid] | < 100 |
| CCc1nc(-c2nnn(C)c2COc2nccc(C3CCC3)n2)ccc1N1C[C@@H](CC(=O)O)CC(F)(F)C1 [Example 79, (S)-2-(1-(6-(5-(((4-cyclobutylpyrimidin-2-yl)oxy)methyl)-1-methyl-1H-1,2,3-triazol-4-yl)-2-ethylpyridin-3-yl)-5,5-difluoropiperidin-3-yl)acetic acid] | < 100 |

The remaining lines, values ahead:

| IC50 [nM] | SMILES |
| --- | --- |
| 500 to 5000 | Cc1nc(-c2nnn(C)c2CN2C[C@@H](CC3CC3)N(C)C2=O)ccc1N1C[C@@H](CC(=O)O)CC(F)(F)C1 [Example 62, 2-((S)-1-(6-(5-(((R)-4-(cyclopropylmethyl)-3-methyl-2-oxoimidazolidin-1-yl)methyl)-1-methyl-1H-1,2,3-triazol-4-yl)-2-methylpyridin-3-yl)-5,5-difluoropiperidin-3-yl)acetic acid] |
| 100 to 500 | Cc1nc(-c2nnn(C)c2CN2C[C@H](CC3CC3)N(C)C2=O)ccc1N1C[C@@H](CC(=O)O)CC(F)(F)C1 [Example 63, 2-((S)-1-(6-(5-(((S)-4-(cyclopropylmethyl)-3-methyl-2-oxoimidazolidin-1-yl)methyl)-1-methyl-1H-1,2,3-triazol-4-yl)-2-methylpyridin-3-yl)-5,5-difluoropiperidin-3-yl)acetic acid] |
| 500 to 5000 | Cc1nc(-c2nnn(C)c2CN2C[C@H](CC3CC3)N(C)C2=O)ccc1N1C[C@H](CC(=O)O)CC(F)(F)C1 [Example 64, 2-((R)-1-(6-(5-(((S)-4-(cyclopropylmethyl)-3-methyl-2-oxoimidazolidin-1-yl)methyl)-1-methyl-1H-1,2,3-triazol-4-yl)-2-methylpyridin-3-yl)-5,5-difluoropiperidin-3-yl)acetic acid] |
| 100 to 500 | Cc1nc(-c2nnn(C)c2Cn2cc(CC3CC3)n(C)c2=O)ccc1N1C[C@@H](CC(=O)O)CC(F)(F)C1 [Example 67, (S)-2-(1-(6-(5-((4-(cyclopropylmethyl)-3-methyl-2-oxo-2,3-dihydro-1H-imidazol-1-yl)methyl)-1-methyl-1H-1,2,3-triazol-4-yl)-2-methylpyridin-3-yl)-5,5-difluoropiperidin-3-yl)acetic acid] |
| > 5000 | Cc1nc(-c2nnn(C)c2Cn2ccn(CC3CC3)c2=O)ccc1N1C[C@@H](CC(=O)O)CC(F)(F)C1 [Example 72, (S)-2-(1-(6-(5-((3-(cyclopropylmethyl)-2-oxo-2,3-dihydro-1H-imidazol-1-yl)methyl)-1-methyl-1H-1,2,3-triazol-4-yl)-2-methylpyridin-3-yl)-5,5-difluoropiperidin-3-yl)acetic acid] |
